From patent US10301272B2, “Carboxamide or sulfonamide substituted thiazoles and related derivatives as modulators for the orphan nuclear receptor ROR[γ]” (Phenex Pharmaceuticals AG, priority 2012, dated 2019)
Where two headings read alike, the source gives them in different places.

What was measured:
RORγ = RORγ (Homo sapiens, UniProt P51449); test: RORγ Gal4 Reporter Gene Assay; assay type: cell-based
Summary of the method: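 Cells at 5×10^5/well were transfected with RORγ fragments fused to the GAL4 DNA-binding domain (CMV promoter), a 5×GAL4-site firefly luciferase reporter and CMV-Renilla luciferase for normalization. About 4 h later serum-free MEM and compound were added (vehicle ≤0.1%). Cultures at 37 °C, 5% CO2; at least triplicates.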

[1] = molecular target: RORγ ligand binding domain (LBD) (Homo sapiens (Human), UniProt P51449); test: TR-FRET Activity Assay (ligand sensing assay, LANCE); settings: for pIC50 (FRET): TR-FRET, interaction of RORγ-LBD with coactivator peptide
[2] = firefly (FF) luciferase, 293T cells, read-out: pIC50 (FF) (converted)
[3] = renilla normalised (RENnorm) luciferase, 293T cells, read-out: pIC50 (REN) (converted)

RORγ, sequence (P51449 whole entry, looked up, the tested form may be a part): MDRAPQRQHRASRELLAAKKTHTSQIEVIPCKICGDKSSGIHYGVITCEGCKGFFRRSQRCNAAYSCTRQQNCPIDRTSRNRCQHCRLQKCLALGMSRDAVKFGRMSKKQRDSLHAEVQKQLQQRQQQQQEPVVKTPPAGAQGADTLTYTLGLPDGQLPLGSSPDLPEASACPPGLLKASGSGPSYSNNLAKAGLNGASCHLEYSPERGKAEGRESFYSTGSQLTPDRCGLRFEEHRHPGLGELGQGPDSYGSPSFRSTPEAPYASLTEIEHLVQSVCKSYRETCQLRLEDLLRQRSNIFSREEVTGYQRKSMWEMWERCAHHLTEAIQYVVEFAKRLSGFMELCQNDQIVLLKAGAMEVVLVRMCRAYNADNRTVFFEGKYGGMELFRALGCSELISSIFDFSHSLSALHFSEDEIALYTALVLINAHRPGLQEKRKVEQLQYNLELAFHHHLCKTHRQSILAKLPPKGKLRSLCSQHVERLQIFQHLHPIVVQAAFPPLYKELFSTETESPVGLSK
RORγ ligand binding domain (LBD), sequence (P51449 269-508): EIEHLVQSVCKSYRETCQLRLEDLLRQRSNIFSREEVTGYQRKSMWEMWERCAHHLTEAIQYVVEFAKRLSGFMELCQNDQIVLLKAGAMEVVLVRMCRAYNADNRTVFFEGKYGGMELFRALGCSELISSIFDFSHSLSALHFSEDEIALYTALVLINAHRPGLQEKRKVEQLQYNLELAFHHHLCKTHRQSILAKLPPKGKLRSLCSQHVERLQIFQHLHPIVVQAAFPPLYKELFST

SMILES | pIC50 (FF) (RORγ) | pIC50 (REN) (RORγ) | pIC50 (FRET) [1] | pIC50 (FF) (RORγ; firefly (FF) luciferase, 293T cells) | pIC50 (REN) (RORγ; renilla normalised (RENnorm) luciferase, 293T cells) | IC50 [1] [nM] | IC50 (RORγ; [2]) [nM] | IC50 (RORγ; [3]) [nM]
CCCc1nc(C(=O)NC2CCS(=O)(=O)CC2)sc1-c1ccc(S(=O)(=O)NC(C)(C)C)c(Cl)c1Cl [300/5] | 7.0/7.4/7.5 | 7.0/7.4/7.5 | 7.0/7.4/7.5 |  |  |  |  | 
CC(C)(C)c1cc(-c2sc(S(N)(=O)=O)nc2CC2CCCCC2)cc(C2(C)CC2)c1 [Example 13, 5-(3-(tert-Butyl)-5-(1-methylcyclopropyl)phenyl)-4-(cyclohexylmethyl)thiazole-2-sulfonamide] | 7.0/6.5/6.7 | 7.0/6.5/6.7 | 7.0/6.5/6.7 |  |  |  |  | 
CC(C)(C)NS(=O)(=O)c1ccc(-c2oc(C(=O)N3CC4(CCSCC4)C3)nc2CC2CCCCC2)c2ccccc12 [100/11] | 6.8/7.1/7.3 | 6.8/7.1/7.3 | 6.8/7.1/7.3 |  |  |  |  | 
CC(C)(O)CNC(=O)c1nc(CC2CCCCC2)c(-c2ccc(S(=O)(=O)NC(C)(C)C)c(C(F)F)c2F)s1 [6/18] | 7.0/8.5/8.7 | 7.0/8.5/8.7 | 7.0/8.5/8.7 |  |  |  |  | 
CC(C)(C)c1cc(-c2sc(C(=O)N[C@H]3C[C@H](C(=O)O)C3)nc2CC2CCCCC2)cc(C(C)(C)F)c1 [Example 24, (trans)-3-(5-(3-(tert-Butyl)-5-(2-fluoropropan-2-yl)phenyl)-4-(cyclohexylmethyl)thiazole-2-carboxamido)cyclobutanecarboxylic acid] |  |  |  | 7.5 | 7.5 | 316 |  | 
COC(C)(C)c1cc(-c2sc(C(=O)N[C@H]3C[C@H](C(=O)O)C3)nc2CC2CCCCC2)cc(C2(C)CC2)c1 [9/5] | 6.7/7.8/7.9 | 6.7/7.8/7.9 | 6.7/7.8/7.9 |  |  |  |  | 
CC(C)(C)c1cc(-c2cc(C(N)=O)ccc2CC2CCCCC2)cc(C(C)(C)C)c1 [Example 208, 3′,5′-Di-tert-butyl-6-(cyclohexylmethyl)-[1,1′-biphenyl]-3-carboxamide] | 6.5/6.3/6.3 | 6.5/6.3/6.3 | 6.5/6.3/6.3 |  |  |  |  | 
CC(C)(C)NS(=O)(=O)c1ccc(-c2sc(C(=O)N3CC4(CCS(=O)(=O)CC4)C3)nc2CC2CCCCC2)c(Cl)c1Cl [6/45] | 7.1/7.9/8.0 | 7.1/7.9/8.0 | 7.1/7.9/8.0 |  |  |  |  | 
CC(C)(C)c1cc(-c2sc(C(=O)N[C@H]3C[C@H](C(=O)O)C3)nc2CC2CCCCC2)cc(C(C)(C)C)[n+]1[O-] [8/9] |  |  |  |  |  | 794 | 126 | 126
CC(C)(C)NS(=O)(=O)c1ccc(-c2sc(C(=O)NCC3(O)CCOCC3)nc2CC2CCCCC2)cc1C(C)(C)O [6/27] | 6.7/7.7/7.7 | 6.7/7.7/7.7 | 6.7/7.7/7.7 |  |  |  |  | 
CSc1cnc(CNC(=O)c2nc(CC3CCCCC3)c(-c3ccc(S(=O)(=O)NC(C)(C)C)c(Cl)c3Cl)s2)s1 [6/40] | 7.0/8.2/8.3 | 7.0/8.2/8.3 | 7.0/8.2/8.3 |  |  |  |  | 
O=C(N[C@H]1C[C@H](C(=O)O)C1)c1nc(CC2CCCCC2)c(-c2ccc(OCC(F)(F)F)c3ccccc23)s1 [7/22] |  |  |  |  |  | > 20000 | 316 | 631
CC(C)(O)c1ccc(-c2sc(C(=O)NC3CCS(=O)(=O)CC3)nc2CC2CCCCC2)c2ccccc12 [7/23] | <4.7/6.8/6.7 | <4.7/6.8/6.7 |  |  |  | > 20000 |  | 
